Experimental data taken from patent US4923882A, “Novel amine derivatives, salts thereof and an anti-ulcer agent containing the same” (Toyama Chemical Co., Ltd., priority 1982, dated 1990).

What was measured:
gastric acid secretion [1] = experiment: Inhibitory effect on gastric acid secretion, perfused stomach preparation of anesthetized rat (histamine stimulated); type: in vivo, Wistar strain rats; settings: intravenous; for ED100: Rattus norvegicus, cumulative, histamine 30 μg/kg/min, read-out: Dose for complete inhibition; for Duration: time from complete inhibition until pH of perfusate became 4
Protocol: (i) Perfused stomach preparation of anesthetized rat [according to M. N. Ghosh and H. O. Schild: Brit. J. Pharmacol. 13, 54 (1958)]
Wistar strain rats (male, 200 to 250 g) starved for 18 hours were anesthetized with urethane and then subjected to laparotomy, after which the forestomach region of the stomach of each rat was incised. The whole interior of the stomach was sufficiently washed with physiological saline, and the cut edges were sutured. A silicon tube was inserted into the stomach to a length of about 5 mm from the duodenum side and fixed. Subsequently, the stomach was perfused with physiological saline adjusted to a pH of about 10 with an aqueous sodium hydroxide solution at a constant rate (1 ml/min) through an oral sonde, and the change in pH of the perfusate which had flowed out through the silicone tube was continuously recorded. During the perfusion, histamine (30 μg/kg/min) was continuously injected, as an agent for stimulating gastric acid secretion, through the femoral vein at a rate of 0.3 ml/min. Each drug was intravenously administered when the acid secretion became almost constant (pH 3.3±0.2), and cumulatively administered when the inhibition of acid secretion at each dose reached a plateau.
The number of experiments was three for each dose.

gastric acid secretion [2] = experiment: Inhibitory effect on gastric acid secretion, pylorus ligation method (histamine); type: in vivo, Wistar strain rats; settings: Rattus norvegicus, oral, histamine 25 mg/kg s.c., read-out: Inhibition percentage (gastric acid secretion)
Protocol: Five to six Wistar strain rats (male, 190 to 230 g) per group were starved for 35 hours, after which each drug was orally administered, and after 2 hours, the pylorus of each rat was ligated under ether anesthesia. […] After 3 hours, each rat was killed, after which the cardiac portion was ligated, and the stomach was removed. After 1 ml of distilled water was injected into the stomach, the gastric juice was collected by centrifugation and its volume was measured. The acidity of the gastric juice was measured by titrating 1 ml of the gastric juice with a 0.1N aqueous sodium hydroxide solution, taking pH 7.0 as the end-point. Physiological saline was administered to a control group.
The inhibition percentage of gastric acid secretion was determined from the following equation: [formula]

Reserpine ulcer = experiment: Anti-ulcer activity: Reserpine ulcer; type: in vivo, Wistar strain rats; settings: oral; for ED50: Rattus norvegicus, 18 h, reserpine ulcer, read-out: ID50 (the source's name)
Protocol: An experiment was carried out according to the method of Adami et al. [E. Adami et al., Arch. int.
Ten Wistar strain rats (male, 180 to 200 g) per group were starved for 30 hours, after which each drug was orally administered, and after 1 hour, reserpine was injected subcutaneously at a dose of 10 mg/kg. After 18 hours, the stomach was removed and fixed with 3% formalin, and thereafter the lengths of the ulcers formed in the stomach were measured with callipers. The measured values were converted to the scores described below, and the sum total of the scores was taken as the ulcer index.
That is to say, 1 to 5 pin point ulcers are scored as 1, 6 or more pin point ulcers are scored as 2, ulcers of 1 mm or less in length are scored as 1, ulcers of 1 to 2 mm in length are scored as 2, ulcers of 2 to 4 mm in length are scored as 4, and ulcers of 4 mm or more in length are scored as 8.
To a control group was administered 0.5% Tween 80 physiological saline. The inhibition percentage was determined from the following equation: [formula]

[3] = test system: Stress ulcer induced by water-immersion; experiment: Anti-ulcer activity: Stress ulcer induced by water-immersion; type: in vivo, Wistar rats; settings: for Inhibition percentage / ED50: oral; for Potency ratio: Cimetidine = 1; for ED50: Rattus norvegicus, 15 h, water-immersion stress ulcer, read-out: ID50 (the source's name)
Protocol: (iii) Stress ulcer induced by water-immersion
An experiment was carried out according to the method of Takagi et al. [K. Takagi et al., Jap.
Six Wistar rats (male, 230 to 280 g) per group were starved for 24 hours, after which each drug was orally administered. After 30 minutes, the rats were placed in stress cage, immersed in water at 23° C. to the depth of xiphoid, and allowed to stand therein for 15 hours. Thereafter, the stomach of each rat was removed and then fixed with 3% formalin, after which the areas of the ulcers formed were measured under the binocular stereoscopic microscope (10×), and the sum total of the areas was taken as the ulcer index. To a control group was administered 0.5% Tween 80 physiological saline.
The inhibition percentage was determined from the following equation: [formula]

Indomethacin ulcer = experiment: Anti-ulcer activity: Indomethacin ulcer; type: in vivo, Wistar strain rats; settings: for Potency ratio: Cimetidine = 1; for ED50: 5 h, Indomethacin ulcer, read-out: ID50 (the source's name)
Protocol: Six Wistar strain rats (male, 200 to 250 g) per group were starved for 24 hours, after which each drug was orally administered, and after 30 minutes, Indomethacin was injected subcutaneously at a dose of 30 mg/kg. After 5 hours, each rat was killed, and the stomach was removed and fixed with 3% formalin, after which the lengths of ulcers formed in the stomach was measured under the binocular stereoscopic microscope (10×), and the sum total of the lengths was taken as the ulcer index. To a control group was administered 0.5% Tween 80 physiological saline. The inhibition percentage was determined from the following equation: [formula]

[4] = Rattus norvegicus, oral, read-out: Inhibition percentage

CN(C)Cc1ccc(CSCCNC(=C[N+](=O)[O-])NCC(O)c2cccs2)o1 (stereo not drawn) [compound 6] showed an ED100 (gastric acid secretion [1]) of 0.1 mg/kg, a Duration (gastric acid secretion [1]) of 132 min and an inhibition in vivo at 3 mg/kg (gastric acid secretion [2]) of 67%. It also gave an inhibition in vivo at 10 mg/kg (gastric acid secretion [2]) of 93%.

Cc1ccsc1C(O)CNC(=C[N+](=O)[O-])NCCSCc1ccc(CN(C)C)o1 (stereo not drawn) [compound 7, N-{2-[[5-(dimethylamino)methyl-2-furyl]methylthio]ethyl}-N'-[2-hydroxy-2-(3-methyl-2-thienyl)ethyl]-2-nitro-1,1-ethenediamine] was tested, and the ED100 (gastric acid secretion [1]) was 0.1 mg/kg, the Duration (gastric acid secretion [1]) was 227 min and the inhibition in vivo at 3 mg/kg (gastric acid secretion [2]) was 88%.

O=[N+]([O-])C=C(NCCCOc1cccc(CN2CCCCC2)c1)NCC(O)c1ccccc1 (stereo not drawn) [compound 11, N-(β-hydroxyphenethyl)-2-nitro-N'-[3-(3-piperidinomethylphenoxy)propyl]-1,1-ethenediamine] was tested, and the ED100 (gastric acid secretion [1]) was 0.05 mg/kg, the Duration (gastric acid secretion [1]) was 123 min and the inhibition in vivo at 3 mg/kg (gastric acid secretion [2]) was 79%. It also gave an inhibition in vivo at 10 mg/kg (gastric acid secretion [2]) of 81%.

O=[N+]([O-])C=C(NCCCOc1cccc(CN2CCCCC2)c1)NCC(O)c1ccc(O)cc1 (stereo not drawn) [compound 12, N-[2-hydroxy-2-(4-hydroxyphenyl)ethyl]-2-nitro-N'-[3-(3-piperidinomethylphenoxy)propyl]-1,1-ethenediamine] gave an ED100 (gastric acid secretion [1]) of 0.15 mg/kg, a Duration (gastric acid secretion [1]) of over 240 min and an inhibition in vivo at 3 mg/kg (gastric acid secretion [2]) of 87%.

O=[N+]([O-])C=C(NCCCOc1cccc(CN2CCCCC2)c1)NCC(O)c1cccc(O)c1 (stereo not drawn) [compound 13, N-[2-hydroxy-2-(3-hydroxyphenyl)ethyl]-2-nitro-N'-[3-(3-piperidinomethylphenoxy)propyl]-1,1-ethenediamine] was tested, and the ED100 (gastric acid secretion [1]) was 0.1 mg/kg, the Duration (gastric acid secretion [1]) was over 240 min and the inhibition in vivo at 1 mg/kg (gastric acid secretion [2]) was 51%.

COc1ccc(C(O)CNC(=C[N+](=O)[O-])NCCCOc2cccc(CN3CCCCC3)c2)cc1 (stereo not drawn) [compound 14, N-[2-hydroxy-2-(4-methoxyphenyl)ethyl]-2-nitro-N'-[3-(3-piperidinomethylphenoxy)propyl]-1,1-ethenediamine] gave an ED100 (gastric acid secretion [1]) of 0.15 mg/kg, a Duration (gastric acid secretion [1]) of 158 min and an inhibition in vivo at 1 mg/kg (gastric acid secretion [2]) of 61%.

O=[N+]([O-])C=C(NCCCOc1cccc(CN2CCCCC2)c1)NCC(O)c1ccc(Cl)cc1 (stereo not drawn) [compound 16, N-[2-(4-chlorophenyl)-2-hydroxyethyl]-2-nitro-N'-[3-(3-piperidinomethylphenoxy)propyl]-1,1-ethenediamine] was tested, and the ED100 (gastric acid secretion [1]) was 0.1 mg/kg, the Duration (gastric acid secretion [1]) was 304 min and the inhibition in vivo at 3 mg/kg (gastric acid secretion [2]) was 89%.

Cc1ccsc1C(O)CNC(=C[N+](=O)[O-])NCCCOc1cccc(CN2CCCCC2)c1 (stereo not drawn) [compound 18, N-[2-hydroxy-2-(3-methyl-2-thienyl)ethyl]-2-nitro-N'-[3-(3-piperidinomethylphenoxy)propyl]-1,1-ethenediamine] was tested, and the ED100 (gastric acid secretion [1]) was 0.3 mg/kg, the Duration (gastric acid secretion [1]) was 247 min and the inhibition in vivo at 3 mg/kg (gastric acid secretion [2]) was 87%.

Work on Cc1cccc(C(O)CNC(=C[N+](=O)[O-])NCCSCc2cc(C)c(CN(C)C)s2)c1 (stereo not drawn) [compound 29, N-{2-[[5-(dimethylamino)methyl-4-methyl-2-thienyl]methylthio]ethyl}-N'-[2-hydroxy-2-(3-methylphenyl)ethyl]-2-nitro-1,1-ethenediamine] yielded an Inhibition percentage (Reserpine ulcer; 1 mg/kg) of 21%, an Inhibition percentage (Reserpine ulcer; 3 mg/kg) of 41% and an ED50 (Reserpine ulcer) of 4.7 mg/kg. For the same compound, the Inhibition percentage ([3]; 1 mg/kg) was 37%, the Inhibition percentage ([3]; 3 mg/kg) was 78% and the Potency ratio [3] was 11.1. The ED50 [3] was 1.4 mg/kg, the ED100 (gastric acid secretion [1]) was 0.3 mg/kg and the Duration (gastric acid secretion [1]) was over 177 min. For the same compound, the Potency ratio (Indomethacin ulcer) was 31.3, the ED50 (Indomethacin ulcer; Rattus norvegicus, oral) was 0.88 mg/kg and the inhibition in vivo at 0.3 mg/kg (Indomethacin ulcer; Rattus norvegicus, 0.3 mg/kg, oral, read-out: Inhibition percentage) was 8%. The inhibition in vivo at 1 mg/kg (Indomethacin ulcer; [4]) was 57% and the inhibition in vivo at 1 mg/kg (gastric acid secretion [2]) was 56%.

Cc1cc(CSCCNC(=C[N+](=O)[O-])NCC(O)c2cccc(Br)c2)sc1CN(C)C (stereo not drawn) [compound 32, N-[2-(3-bromophenyl)-2-hydroxyethyl]-N'-{2-[[5-(dimethylamino)methyl-4-methyl-2-thienyl]methylthio]ethyl}-2-nitro-1,1-ethenediamine] gave an Inhibition percentage (Reserpine ulcer; 1 mg/kg) of 38%, an Inhibition percentage (Reserpine ulcer; 3 mg/kg) of 55% and an ED50 (Reserpine ulcer) of 2.15 mg/kg. The ED100 (gastric acid secretion [1]) was 0.3 mg/kg, the Duration (gastric acid secretion [1]) was over 220 min and the Potency ratio (Indomethacin ulcer) was 15.2. The ED50 (Indomethacin ulcer; Rattus norvegicus, oral) was 1.81 mg/kg, the inhibition in vivo at 1 mg/kg (Indomethacin ulcer; [4]) was 24% and the inhibition in vivo at 3 mg/kg (Indomethacin ulcer; Rattus norvegicus, 3 mg/kg, oral, read-out: Inhibition percentage) was 72%. For the same compound, the inhibition in vivo at 1.5 mg/kg (gastric acid secretion [2]; 1.5 mg/kg) was 60%.

Cc1cc(CSCCNC(=C[N+](=O)[O-])NCC(O)c2cccc(C(F)(F)F)c2)sc1CN(C)C (stereo not drawn) [compound 33, N-{2-[[5-(dimethylamino)methyl-4-methyl-2-thienyl]methylthio]ethyl}-N'-[2-hydroxy-2-(3-trifluoromethylphenyl)ethyl]-2-nitro-1,1-ethenediamine] was tested, and the Inhibition percentage (Reserpine ulcer; 1 mg/kg) was 42%, the Inhibition percentage (Reserpine ulcer; 3 mg/kg) was 68% and the ED50 (Reserpine ulcer) was 1.4 mg/kg. The Inhibition percentage ([3]; 1 mg/kg) was 32%, the Inhibition percentage ([3]; 3 mg/kg) was 75% and the Potency ratio [3] was 9.8. The ED50 [3] was 1.58 mg/kg, the ED100 (gastric acid secretion [1]) was 0.3 mg/kg and the Duration (gastric acid secretion [1]) was over 240 min. For the same compound, the inhibition in vivo at 1 mg/kg (gastric acid secretion [2]) was 55%.
